Test results as given in US5891901A, “Substituted pyrroles” (Hoffmann-La Roche Inc., priority 1997, dated 1999).
pIC50: −log10 of the molar value.

Legend:
MDA-MB435 cells = assay: Antiproliferative activity, MDA-MB435 epithelial breast carcinoma cell line (MTT); type: cell-based; conditions: Homo sapiens, MDA-MB-435, 120 h, MTT at day 5 post-drug addition, values marked * (Compounds A, B, D) are an average of two separate experiments, read-out: Antiproliferative Activity, MDAMB435 IC50
Experimental: (§1) The epithelial breast carcinoma cell line, MDA-MB435 and the colon carcinoma cell line, SW480, were purchased from ATCC (American Type Culture Collection) and were grown in culture in medium as recommended by ATCC. For analysis of the effect of various compounds on growth of these cells, the cells were plated at a concentration of 1500 cells/well in a 96 well tissue culture plate ("test plate"). The day after the cells were plated, the compounds to be analyzed were dissolved in 100% DMSO (dimethyl sulfoxide) to yield a 10 mM stock solution. Each compound was diluted in H2 O to 1 mM and was added to triplicate wells in the first row of a 96 well master plate which contains medium to yield a final concentration of 40 μM. The compounds were then serially diluted in medium in the "master plate". The diluted compound(s) were then transferred to test plates containing cells. A row of vehicle "control cells" received DMSO. The final concentration of DMSO in each well was 0.1%. At day 5 post-drug addition, the plate containing MDA-MB435 cells were analyzed as follows. Plates containing SW480 cells were analyzed at day 7 post-drug addition as follows.
(§2) MTT ([3-(4,5-dimethylthiazole-2-yl)-2,5-diphenyl-2H-tetrazolium bromide]; thiazolyl blue) was added to each well to yield a final concentration of 1 mg/ml. The plate was then incubated at 37° C. for 21/2-3 hours. The MTT containing medium was then removed and 50 μl of 100% ethanol was added to each well to dissolve the formazan. The absorbences were then read using an automated plate reader (Bio-tek microplate reader). IC50 's were calculated using the Reed and Munsch equation, see, Am. J. Hygiene Vol. 27 pgs. 493-497, 1938.

SW480 cells = assay: Antiproliferative activity, SW480 colon carcinoma cell line (MTT); type: cell-based; conditions: Homo sapiens, 168 h, MTT at day 7 post-drug addition, values marked * (Compounds A, B, C) are an average of two separate experiments
Experimental: as §1, §2

Question: `Cc1ccc2c(C3=C(c4cn(C)c5ccccc45)C(=O)NC3=O)cn(C)c2c1` [Compound A, 3-(1,6-dimethyl-1H-indol-3-yl)-4-(1-methyl-1H-indol-3yl)-pyrrole-2,5-dione] was tested. Which pIC50 (MDA-MB435 cells) did it give?
Answer: The pIC50 was 7.48.

Question: What about the pIC50 (SW480 cells) of the same compound?
Answer: Its pIC50 is 7.54.

Question: With `CSc1ccc2c(C3=C(c4cn(C)c5ccccc45)C(=O)NC3=O)cn(C)c2c1` [Compound B, 3-(6-methylsulfanyl-1-methyl-1H-indol-3-yl)-4-(1-methyl-1H-indol-3-yl)-pyrrole-2,5-dione] as the compound, how does the pIC50 (MDA-MB435 cells) read?
Answer: The pIC50 was 7.35.

Question: What about the pIC50 (SW480 cells) of the same compound?
Answer: Its pIC50 is 7.15.

Question: What does the source list for `Cn1cc(C2=C(c3cn(C)c4cc(O)ccc34)C(=O)NC2=O)c2ccccc21` [Compound C, 3-(6-hydroxy-1-methyl-1H-indol-3-yl)-4-(1-methyl-1H-indol-3-yl)-pyrrole-2,5-dione]?
Answer: pIC50 (MDA-MB435 cells): 7.52; pIC50 (SW480 cells): 7.15

Question: `CCc1ccc2c(C3=C(c4cn(C)c5ccccc45)C(=O)NC3=O)cn(C)c2c1` [Compound D, 3-(6-ethyl-1-methyl-1H-indol-3-yl)-4-(1-methyl-1H-indol-3-yl)-pyrrole-2,5-dione] was tested. Which pIC50 (MDA-MB435 cells) did it give?
Answer: The pIC50 was 7.10.

Question: `Cn1cc(C2=C(c3cn(C)c4cc(CC#N)ccc34)C(=O)NC2=O)c2ccccc21` [Compound E, {1-methyl-3-[4-(1-methyl-1H-indol-3-yl)-2,5-dioxo-2,5-dihydro-1H-pyrrol-3-yl]-1H-indol-6-yl}-acetonitrile] was tested. Which pIC50 (MDA-MB435 cells) did it give?
Answer: The pIC50 was 6.70.
